# Experimental data published in patent US20170312301A1, “SKIN BARRIER FUNCTION-IMPROVING AGENT AND COMPOSITION FOR IMPROVING SKIN BARRIER FUNCTION” (SHOWA DENKO K.K., priority 2014, published 2017).
# Experiments:
# TRPV4 gene = assay: Promoting effect on TRPV4 gene expression (quantitative real-time PCR, standardized to GAPDH); format: cell-based, human; conditions: SVHK cells, 1 μM, 48 hours, purified water control = 1.00
# Procedure: Human epidermal cells (SVHK cells) which were established from introduction of SV40 gene into human epidermal cells, were seeded on a plastic petri dish at a seeding density of 10,000 cells/cm^2 and cultured for 24 hours in Dulbecco's Modified Eagle's Medium (DMEM, manufactured by Sigma-Aldrich Co. LLC.) containing 10% fetal bovine serum. Next, to the medium of SVHK cells, an inositol derivative (composition thereof will be described below) dissolved in purified water was added to the final concentration of 1 μM, and culturing was further performed for 48 hours. As for a control, in place of 1 μM inositol derivative, the same amount of purified water was added to SVHK cells, and the cells were cultured in the same manner as above. […] The inositol derivative used was analyzed by using liquid chromatography-mass spectrometry (LC-MS), and the results are as follows. […] Next, quantitative real-time PCR was performed using this cDNA as a template, and the expression levels of TRPV4 gene in SVHK cells of each group were quantified. In addition, the expression level of glyceraldehyde-3-phosphate dehydrogenase (GAPDH) which is a housekeeping gene in which variation is not observed in the expression by adding a compound, as an internal standard gene, was quantified, and based on the expression levels of GAPDH gene in SVHK cells of each group, the expression levels of TRPV4 gene were standardized. […]
# occludin (OCL) gene = assay: Promoting effect on TJ-related gene expression: occludin (OCL) gene (quantitative real-time PCR, standardized to GAPDH); format: cell-based, human; conditions: SVHK cells, 1 μM, 48 hours, purified water control = 1.00
# Procedure: (§1) Human epidermal cells (SVHK cells) which were established from introduction of SV40 gene into human epidermal cells, were seeded on a plastic petri dish at a seeding density of 10,000 cells/cm^2 and cultured for 24 hours in Dulbecco's Modified Eagle's Medium (DMEM, manufactured by Sigma-Aldrich Co. LLC.) containing 10% fetal bovine serum. Next, to the medium of SVHK cells, 1 μM inositol derivative (composition thereof will be described below) dissolved in purified water was added to the final concentration of 1 μM, and culturing was further performed for 48 hours. […] The inositol derivative used was analyzed by using liquid chromatography-mass spectrometry (LC-MS), and the results are as follows. […] Next, quantitative real-time PCR was performed using this cDNA as a template, and the expression levels of claudin-1 (CLDN1) gene and occludin (OCL) gene in SVHK cells of each group were quantified. In addition, the expression level of glyceraldehyde-3-phosphate dehydrogenase (GAPDH) which is a housekeeping gene in which variation is not observed in the expression by adding a compound, as an internal standard gene, was quantified, and based on the expression levels of GAPDH gene in SVHK cells of each group, the expression levels of CLDN1 gene and OCL gene were standardized. […]
# occludin = assay: Test for evaluating TJ-forming ability: occludin immunostaining fluorescence intensity in Skin Model slices; format: cell-based; conditions: 1 w/v %, relative to non-applied group
# [1] = tested on: Skin Model (type EP1-200); assay: Test for evaluating TJ-forming ability: transepidermal water loss (TEWL) of Skin Model; format: cell-based; conditions: 1 w/v % on surface of Skin Model, 24 hours
# Procedure: Skin Model (type “EP1-200” manufactured by KURABO INDUSTRIES LTD.) was cultured before 24 hours at 37° C. under 5% CO2. Next, an inositol derivative (composition thereof will be described below) dissolved in purified water in each concentration of 0.1, 0.5, and 1 w/v % was added to the surface of Skin Model, and culturing was further performed for 24 hours. Next, the inositol derivative was removed, Skin Model was washed three times with a phosphate buffer solution, and transepidermal water loss (TEWL) thereof was measured. For the measurement of TEWL, a cyclone-type moisture-transpiration meter (manufactured by […]) was used. The inositol derivative used was analyzed by using liquid chromatography-mass spectrometry (LC-MS), and the results are as follows. […] As for a control, prepared were a group added with nothing in place of the inositol derivative and a group added with the same amount of purified water in place of the inositol derivative, and TEWL was measured in the same manner as above. In addition, for comparison, prepared was a group in which myo-inositol dissolved in purified water in a concentration of 1 w/v % was added in place of the inositol derivative, and TEWL was measured in the same manner as above.
# claudin-1 (CLDN1) gene = assay: Promoting effect on TJ-related gene expression: claudin-1 (CLDN1) gene (quantitative real-time PCR, standardized to GAPDH); format: cell-based, human; conditions: SVHK cells, 1 μM, 48 hours, purified water control = 1.00
# Procedure: as §1
smiles,measurement,setting,value
"O[C@H]1[C@H](O)[C@@H](O)[C@H](O)[C@@H](O)[C@H]1O [Myo-inositol, myo-inositol]",Expression levels of TRPV4 gene (relative value),TRPV4 gene,0.84 relative value
same,Expression levels of gene (relative value) OCL,occludin (OCL) gene,0.94 relative value
same,Fluorescence intensity (relative value),occludin,3.32 relative value
same,TEWL,[1],30.7 ± 2.9 g/(h · m^2)
same,Expression levels of gene (relative value) CLDN1,claudin-1 (CLDN1) gene,1.57 relative value
